According to patent US20140288074A1, “FUNGICIDAL PYRAZOLES” (E I DU PONT DE NEMOURS AND COMPANY, priority 2013, published 2014):
Marks after values point to notes of the source that are not given here.

Assays:
[1] = system: Alternaria solani; assay: Test B: preventive spray on tomato seedlings, tomato early blight, visual disease rating; type: in vivo
Description: General protocol for preparing test suspensions for Tests A-G: the test compounds were first dissolved in acetone in an amount equal to 3% of the final volume and then suspended at the desired concentration (in ppm) in acetone and purified water (50/50 mix by volume) containing 250 ppm of the surfactant Trem® 014 (polyhydric alcohol esters). The resulting test suspensions were then used in Tests A-G. Each test was conducted in triplicate, and the results were averaged. Spraying a 200 ppm test suspension to the point of run-off on the test plants was the equivalent of a rate of 800 g/ha. Unless otherwise indicated, the rating values indicate a 200 ppm test suspension was used. (An asterisk “*” next to the rating value indicates a 40 ppm test suspension was used.) The test suspension was sprayed to the point of run-off on tomato seedlings. The following day the seedlings were inoculated with a spore suspension of Alternaria solani (the causal agent of tomato early blight) and incubated in a saturated atmosphere at 27° C. for 48 h, and then moved to a growth chamber at 20° C. for 5 days, after which time visual disease ratings were made. Results for Tests A-G are given in Table A. In the Table, a rating of 100 indicates 100% disease control and a rating of 0 indicates no disease control (relative to the controls). A hyphen (-) indicates no test results.

[2] = system: Septoria nodorum; assay: Test C: preventive spray on wheat seedlings, Septoria glume blotch, visual disease rating; type: in vivo; conditions: for Test C rating (disease control) / pest or weed control at 200 ppm: 200 ppm test suspension, Septoria nodorum inoculated the day after spraying
Procedure, shortened: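 Compounds suspended in acetone/water (50/50) with 250 ppm surfactant, sprayed to run-off at 200 ppm (40 ppm where marked); seedlings inoculated next day, held 48 h saturated at 24 °C, then 9 days at 20 °C. Visual rating 0–100% disease control versus controls, triplicate averaged.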

[3] = 200 ppm test suspension, Alternaria solani inoculated the day after spraying
[4] = Parastagonospora nodorum, 264 h

| SMILES | Test B rating (disease control) [1, 3] [%] | Test C rating (disease control) [2] [%] | pest or weed control at 200 ppm [2, 4] [%] | Test B rating (disease control) ([1]; 40 ppm test suspension (asterisk), Alternaria solani) | pest or weed control at 40 ppm ([2]; Parastagonospora nodorum, 264 h, 40 ppm test suspension (asterisk), Septoria nodorum) [%] |
| --- | --- | --- | --- | --- | --- |
| C=CCC(C)(C)C(O)c1c(-c2c(F)cccc2F)c(C)nn1C (centres unmarked) [Compound 12] | 32 | 0 |  |  |  |
| CCCNc1c(-c2ccc(Cl)cc2Cl)c(C)nn1C [Compound 3] | 21 | 0 |  |  |  |
| Cc1nn(C)c(C(O)C(C)C)c1-c1ccc(F)cc1Cl (stereo not drawn) [Compound 2, 4-(2-chloro-4-fluorophenyl)-1,3-dimethyl-α-(1-methylethyl)-1H-pyrazole-5-methanol] | 0 |  | 0 |  |  |
| Cc1nn(C)c(NC2CCCCC2)c1-c1ccc(F)cc1F [Compound 6, N-cyclohexyl-4-(2,4-difluorophenyl)-1,3-dimethyl-1H-pyrazol-5-amine] | 99 |  | 0 |  |  |
| Cc1nn(C)c(C(O)C(C)(C)CCC#N)c1-c1c(F)cccc1F (centres unmarked) [Compound 9] | 0 | 0 |  |  |  |
| CCCC(O)c1c(-c2c(F)cccc2F)c(C)nn1C (centres unmarked) [Compound 14] | 0 | 0 |  |  |  |
| CCCCC(CC)C(O)c1c(-c2c(F)cccc2F)c(C)nn1C (centres unmarked) [Compound 13] | 0 | 0 |  |  |  |
| Cc1nn(C)c(C(O)CC(C)C)c1-c1c(F)cccc1Cl (centres unmarked) [Compound 20] | 93 | 0 |  |  |  |
| Cc1nn(C)c(C(O)C2=CCCCC2)c1-c1c(F)cccc1F (centres unmarked) [Compound 10] | 99 | 0 |  |  |  |
| CCC(C)C(O)c1c(-c2ccc(F)cc2Cl)c(C)nn1C (stereo not drawn) [Compound 8, 4-(2-chloro-4-fluorophenyl)-1,3-dimethyl-α-(1-methylpropyl)-1H-pyrazole-5-methanol] | 99 |  | 0 |  |  |
| Cc1nn(C)c(C(O)CC(C)C)c1-c1c(F)cccc1F (centres unmarked) [Compound 11] | 81 | 0 |  |  |  |
| CCC(C)C(O)c1c(-c2c(F)cccc2F)c(C)nn1C (centres unmarked) [Compound 15] | 99 | 0 |  |  |  |
| CCCC(O)c1c(-c2c(F)cccc2Cl)c(C)nn1C (centres unmarked) [Compound 21] | 56 | 0 |  |  |  |
| Cc1nn(C)c(NCC(C)C)c1-c1ccc(Cl)cc1Cl [Compound 4, 4-(2,4-dichlorophenyl)-1,3-dimethyl-N-(2-methylpropyl)-1H-pyrazol-5-amine] | 94 |  | 0 |  |  |
| CCC(C)C(O)c1c(-c2c(F)cccc2Cl)c(C)nn1C (stereo not drawn) [Compound 19, 4-(2-chloro-6-fluorophenyl)-1,3-dimethyl-α-(1-methylpropyl)-1H-pyrazole-5-methanol] |  |  |  | 0* % | 0 |
| CCCCNc1c(-c2ccc(Cl)cc2Cl)c(C)nn1C [Compound 5, N-butyl-4-(2,4-dichlorophenyl)-1,3-dimethyl-1H-pyrazol-5-amine] | 0 |  | 0 |  |  |
